# Measured values from patent US10159254B2, “Weed control methods” (Syngenta Participations AG, priority 2013, dated 2018).
# “And” between values parts separate entries of the source, which are not always exact repeats. Equal values may be shown once.
# Experiments:
# SYHT0H2 soybeans [1] = assay: Greenhouse: Sequestrene 138Fe rate series, percent injury from HPPD-inhibitors at 7 DAT; assay type: in vivo, soybean; conditions: mesotrione 420, bicyclopyrone 200, tembotrione 368, topramezone 72 g/ha
# Protocol: Effect of Sequestrene® 138Fe on Percent Injury from Various HPPD-inhibitors on SYHT0H2 Soybeans. Injury Assessed at Seven Days after Treatment (7 DAT)
# SYHT0H2 soybeans are grown in 4×4-inch pots filled with a greenhouse potting mix. When the plants reach the V2-V3 growth stage, they are treated with an HPPD inhibitor applied alone or in a tank mixture with Sequestrene 138Fe at various rates ranging from 140 g product/ha (equivalent to 8.4 g iron/ha) to 2240 g product/ha (equivalent to 134 g iron/ha).
# SYHT0H2 soybeans [2] = assay: Greenhouse: water-soluble iron compounds safening mesotrione, maximum injury; conditions: mesotrione 420 g ai/ha, additive none; maximum injury of 6, 9, 16 days after treatment
# Protocol: An experiment is conducted to look at the safening effect of a variety of water-soluble iron-containing compounds. SYHT0H2 soybean plants are grown in small pots filled with a greenhouse potting mix. […] In all cases, mesotrione was applied at 420 g ai/ha and all treatments contained liquid ammonium sulphate at 2.5% v/v and NIS at 0.25% v/v. The application rates of iron-containing compounds indicated are iron equivalent rates. […] Percent injury levels were assessed 6, 9, and 16 days after treatment. Data presented are maximum injury occurring from any of the treatments at any time during the experiment.
# [3] = test system: HPPD-tolerant soybean event SYHT0H2; assay: Glasshouse: post-emergence HPPD herbicide damage with or without Sequestrene 138Fe, 7 DAA; assay type: in vivo; conditions: isoxaflutole, tembotrione
# Protocol: (§1) Safening of Various HPPD-inhibiting Herbicides in HPPD-tolerant Soybean Events SYHT04R and SYHT0H2
# (§2) An experiment is performed to determine whether the addition of chelating iron to the spray formulation can mitigate foliar bleaching injury from the HPPD herbicides mesotrione, bicyclopyrone, tembotrione, isoxaflutole, topramezone and pyrasulfatole when applied post-emergence to the HPPD-tolerant soybean events SYHT04R and SYHT0H2.
# (§3) Soybean plants are grown in a glasshouse (24° C. day, 18° C. night; 65% relative humidity; 16 hour photoperiod). Two replicates are utilised in respect of SYHT0H2 (growth stage V1-V3) and three replicates are utilised in respect of SYHT04R (growth stage V1 to V3). Spray applications are applied post-emergence at […]. Herbicide damage was assessed 7 DAA (Days After Application).
# [4] = test system: HPPD-tolerant soybean event SYHT04R; assay: as above; assay type: in vivo; conditions: isoxaflutole, tembotrione
# Protocol: as §1, §2, §3
# [5] = test system: tobacco line over-expressing wheat HPPD; assay: Transgenic tobacco herbicide damage, mesotrione with or without Sequestrene 138; assay type: in vivo, Nicotiana tabacum cv Samsun (tobacco)
# Protocol: (§4) Effect of Iron Chelates in Mitigating Foliar Bleaching Injury from HPPD Inhibiting Herbicides Across Various Transgenic HPPD Tolerant Tobacco Events Over-expressing HPPD Genes from Different Origins
# (§5) This experiment is carried out to determine whether iron chelates can mitigate the bleaching injury from HPPD inhibiting herbicides across various transgenic HPPD tolerant tobacco events over-expressing HPPD genes from different origins. These experiments are conducted using three distinct HPPD-overexpressing Nicotiana tabacum cv Samsun (tobacco) lines, one over-expressing wheat HPPD, one overexpressing an Avena HPPD and one over-expressing a HPPD from a bacterial source, Pseudomonas florescens. For each transgenic line, five identical clonal plants were sprayed with each herbicide treatment. Two untransformed clonal tobacco plants are also sprayed ([…]) with each herbicide treatment. Assessments are carried out 3, 7 and 14 days after herbicide application.
# (§6) All scores represent average % herbicide damage. […] An equivalent safening effect is not observed when the same chemical treatments are applied to wild type plants.
# [6] = test system: tobacco line overexpressing Avena HPPD; assay: as above; assay type: in vivo, Nicotiana tabacum cv Samsun (tobacco)
# Protocol: as §4, §5, §6
# [7] = test system: tobacco line over-expressing HPPD from Pseudomonas florescens; assay: as above; assay type: in vivo, Nicotiana tabacum cv Samsun (tobacco)
# Protocol: as §4, §5, §6
# [8] = test system: common waterhemp (Amaranthus rudis); assay: Greenhouse weed control: HPPD inhibitors with or without Sequestrene 138Fe, common waterhemp; assay type: in vivo; conditions: common waterhemp control 17 DAT
# Protocol: A greenhouse experiment is conducted to determine the effect of chelated iron on weed control in the greenhouse. Velvetleaf (Abutilon theophrasti) and common waterhemp (Amaranthus rudis) plants are grown in 4×4-inch pots filled with a greenhouse potting mix. When the plants reached the 2 to 3 inch height (2 to 3 leaf stage), they are sprayed with a reduced rate of an HPPD inhibitor alone or in a tank mix combination with Sequestrene 138Fe at 140 g/ha (equivalent to 8.4 g iron/hectare) or 280 g/ha (equivalent to 16.8 g iron/hectare). […] Observations on percent control are recorded 12, 19, and 25 days after treatment.
# Effect of Tank Mix Applications of Various HPPD Inhibitors and Sequestrene 138Fe on Common Waterhemp Control. Injury Assessed 17 DAT
# An experiment is performed to look at the effect of applying iron chelates on control of Common Waterhemp using HPPD-inhibiting herbicides. Experiment design is analogous to that outlined in Experiment 3 above.
# [9] = Sequestrene 138Fe 1000 g/ha, g ai/ha: mesotrione 200, bicyclopyrone, pyrasulfatole 100, topramazone 50
# [10] = Sequestrene 138Fe 1000 g/ha, g ai/ha: mesotrione 800, bicyclopyrone, pyrasulfatole 400, topramazone 200
# [11] = no Sequestrene 138Fe, g ai/ha: mesotrione 200, bicyclopyrone, pyrasulfatole 100, topramazone 50
# [12] = no Sequestrene 138Fe, g ai/ha: mesotrione 800, bicyclopyrone, pyrasulfatole 400, topramazone 200
compound,measurement,setting,value
"CS(=O)(=O)c1ccc(C(=O)C2C(=O)CCCC2=O)c([N+](=O)[O-])c1 [Mesotrione, mesotrione]",% Injury,SYHT0H2 soybeans [1]; Sequestrene 138Fe 0 g/ha,15%
same,% Injury,SYHT0H2 soybeans [1]; Sequestrene 138Fe 140 g/ha tank mix,13%
same,% Injury,SYHT0H2 soybeans [1]; Sequestrene 138Fe 280 g/ha tank mix,2%
same,% Injury,SYHT0H2 soybeans [1]; Sequestrene 138Fe 560 g/ha tank mix,1%
same,% Injury,SYHT0H2 soybeans [1]; Sequestrene 138Fe 1120 g/ha tank mix,0%
same,% Injury,SYHT0H2 soybeans [1]; Sequestrene 138Fe 2240 g/ha tank mix,0%
same,% Injury,SYHT0H2 soybeans [2],17%
same,Herbicide damage SYHT0H2,[3]; [9],3
same,Herbicide damage SYHT0H2,[3]; [10],18
same,Herbicide damage SYHT0H2,[3]; [11],13
same,Herbicide damage SYHT0H2,[3]; [12],23
same,Herbicide damage SYHT04R,[4]; [9],2
same,Herbicide damage SYHT04R,[4]; [10],17
same,Herbicide damage SYHT04R,[4]; [11],8
same,Herbicide damage SYHT04R,[4]; [12],32
same,% herbicide damage,"[5]; Trt 7: mesotrione 200 gai/ha alone, 3DAA",10% and 5%
same,% herbicide damage,"[5]; Trt 7: mesotrione 200 gai/ha alone, 7DAA",10% and 0%
same,% herbicide damage,"[5]; Trt 7: mesotrione 200 gai/ha alone, 14DAA",10% and 0%
same,% herbicide damage,"[5]; Trt 8: mesotrione 300 gai/ha alone, 3DAA",15% and 10%
same,% herbicide damage,"[5]; Trt 9: mesotrione 400 gai/ha alone, 3DAA",20% and 15%
same,% herbicide damage,"[5]; Trt 9: mesotrione 400 gai/ha alone, 7DAA",20% and 25%
same,% herbicide damage,"[5]; Trt 10: mesotrione 200 gai/ha + Sequestrene 138 1000 g/ha, 3DAA",0% and 5%
same,% herbicide damage,"[5]; Trt 10: mesotrione 200 gai/ha + Sequestrene 138 1000 g/ha, 7DAA",0%
same,% herbicide damage,"[5]; Trt 11: mesotrione 300 gai/ha + Sequestrene 138 1000 g/ha, 3DAA",0% and 5% and 10%
same,% herbicide damage,"[5]; Trt 11: mesotrione 300 gai/ha + Sequestrene 138 1000 g/ha, 7DAA",10% and 5% and 0%
same,% herbicide damage,"[5]; Trt 12: mesotrione 400 gai/ha + Sequestrene 138 1000 g/ha, 3DAA",10% and 0%
same,% herbicide damage,"[5]; Trt 12: mesotrione 400 gai/ha + Sequestrene 138 1000 g/ha, 7DAA",5% and 0%
same,% herbicide damage,"[5]; Trt 12: mesotrione 400 gai/ha + Sequestrene 138 1000 g/ha, 14DAA",10% and 5%
same,% herbicide damage,"[6]; Trt 13: mesotrione 400 gai/ha alone, 3DAA",55% and 45% and 50% and 60% and 40%
same,% herbicide damage,"[6]; Trt 13: mesotrione 400 gai/ha alone, 7DAA",70% and 65%
same,% herbicide damage,"[6]; Trt 13: mesotrione 400 gai/ha alone, 14DAA",65% and 45% and 50%
same,% herbicide damage,"[6]; Trt 14: mesotrione 500 gai/ha alone, 3DAA",55% and 60% and 65%
same,% herbicide damage,"[6]; Trt 14: mesotrione 500 gai/ha alone, 7DAA",75% and 70%
same,% herbicide damage,"[6]; Trt 14: mesotrione 500 gai/ha alone, 14DAA",70% and 65% and 60%
same,% herbicide damage,"[6]; Trt 15: mesotrione 600 gai/ha alone, 7DAA",55% and 75% and 78%
same,% herbicide damage,"[6]; Trt 15: mesotrione 600 gai/ha alone, 14DAA",40% and 65% and 50% and 70%
same,% herbicide damage,"[6]; Trt 16: mesotrione 400 gai/ha + Sequestrene 138 1000 g/ha, 3DAA",0% and 5% and 10%
same,% herbicide damage,"[6]; Trt 16: mesotrione 400 gai/ha + Sequestrene 138 1000 g/ha, 7DAA",15% and 10%
same,% herbicide damage,"[6]; Trt 16: mesotrione 400 gai/ha + Sequestrene 138 1000 g/ha, 14DAA",15% and 10% and 5%
same,% herbicide damage,"[7]; Trt 2: mesotrione 100 gai/ha alone, 3DAA",35% and 25% and 20%
same,% herbicide damage,"[7]; Trt 2: mesotrione 100 gai/ha alone, 7DAA",55% and 30% and 35%
same,% herbicide damage,"[7]; Trt 2: mesotrione 100 gai/ha alone, 14DAA",40% and 25% and 20% and 30%
same,% herbicide damage,"[7]; Trt 4: mesotrione 50 gai/ha + Sequestrene 138 1000 g/ha, 7DAA",0%
same,% herbicide damage,"[7]; Trt 4: mesotrione 50 gai/ha + Sequestrene 138 1000 g/ha, 14DAA",0%
same,% herbicide damage,"[7]; Trt 5: mesotrione 100 gai/ha + Sequestrene 138 1000 g/ha, 3DAA",10% and 5%
same,% herbicide damage,"[7]; Trt 5: mesotrione 100 gai/ha + Sequestrene 138 1000 g/ha, 7DAA",0%
same,% herbicide damage,"[7]; Trt 6: mesotrione 150 gai/ha + Sequestrene 138 1000 g/ha, 3DAA",5% and 15% and 10%
same,% herbicide damage,"[7]; Trt 6: mesotrione 150 gai/ha + Sequestrene 138 1000 g/ha, 14DAA",5% and 0%
same,% Injury,"[8]; Sequestrene 138Fe 0 g/ha, g ai/ha: mesotrione 26, isoxaflutole 26, bicyclopyrone 50, tembotrione 46, pyrasulfatole 22, topramezone 18",77%
same,% Injury,"[8]; Sequestrene 138Fe 140 g/ha tank mix, mesotrione 26, isoxaflutole 26 g ai/ha",78%
